Experimental data published in BindingDB's records for patent US9796704 (SYMPHONY EVOLUTION, INC., 2017).

Key:
Experiment in all cases: AlphaScreen Assay
[1] = target: Receptor tyrosine-protein kinase erbB-2 (Homo sapiens, UniProt P04626)
[2] = target: Vascular endothelial growth factor receptor 1 (Homo sapiens, UniProt P17948)
[3] = target: Vascular endothelial growth factor receptor 2 (Homo sapiens, UniProt P35968)
Ephrin type-B receptor 4 = target: T1, Ephrin type-B receptor 4 (Homo sapiens, UniProt P54760)
T1 sequence (P54760 whole entry): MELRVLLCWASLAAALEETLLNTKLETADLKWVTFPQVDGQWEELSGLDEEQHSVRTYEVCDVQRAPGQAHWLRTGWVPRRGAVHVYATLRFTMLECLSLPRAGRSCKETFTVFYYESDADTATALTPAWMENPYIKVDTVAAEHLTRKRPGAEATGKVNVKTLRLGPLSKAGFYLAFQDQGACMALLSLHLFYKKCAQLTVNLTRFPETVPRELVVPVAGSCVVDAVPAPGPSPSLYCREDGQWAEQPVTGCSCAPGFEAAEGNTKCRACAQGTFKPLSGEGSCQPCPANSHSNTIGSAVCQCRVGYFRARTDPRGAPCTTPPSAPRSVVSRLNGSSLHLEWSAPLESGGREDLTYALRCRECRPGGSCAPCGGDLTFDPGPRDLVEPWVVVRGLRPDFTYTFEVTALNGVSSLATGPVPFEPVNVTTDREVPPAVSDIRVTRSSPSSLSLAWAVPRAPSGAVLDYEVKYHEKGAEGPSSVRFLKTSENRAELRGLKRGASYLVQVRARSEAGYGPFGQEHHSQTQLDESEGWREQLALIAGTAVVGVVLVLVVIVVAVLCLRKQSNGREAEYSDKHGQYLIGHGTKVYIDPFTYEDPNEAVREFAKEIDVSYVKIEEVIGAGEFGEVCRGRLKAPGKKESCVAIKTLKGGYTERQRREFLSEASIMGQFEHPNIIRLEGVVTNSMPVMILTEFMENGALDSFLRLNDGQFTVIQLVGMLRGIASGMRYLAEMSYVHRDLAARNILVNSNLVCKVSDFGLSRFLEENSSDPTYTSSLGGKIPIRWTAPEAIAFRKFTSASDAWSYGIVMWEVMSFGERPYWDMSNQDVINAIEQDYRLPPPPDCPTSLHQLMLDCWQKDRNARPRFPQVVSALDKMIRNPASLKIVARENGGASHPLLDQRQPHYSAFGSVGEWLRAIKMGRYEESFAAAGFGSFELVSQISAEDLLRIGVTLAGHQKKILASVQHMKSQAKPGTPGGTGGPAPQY

Ephrin type-A receptor 2 = Ephrin type-A receptor 2 (Homo sapiens, UniProt P29317)
Ephrin type-A receptor 2, sequence (P29317 whole entry): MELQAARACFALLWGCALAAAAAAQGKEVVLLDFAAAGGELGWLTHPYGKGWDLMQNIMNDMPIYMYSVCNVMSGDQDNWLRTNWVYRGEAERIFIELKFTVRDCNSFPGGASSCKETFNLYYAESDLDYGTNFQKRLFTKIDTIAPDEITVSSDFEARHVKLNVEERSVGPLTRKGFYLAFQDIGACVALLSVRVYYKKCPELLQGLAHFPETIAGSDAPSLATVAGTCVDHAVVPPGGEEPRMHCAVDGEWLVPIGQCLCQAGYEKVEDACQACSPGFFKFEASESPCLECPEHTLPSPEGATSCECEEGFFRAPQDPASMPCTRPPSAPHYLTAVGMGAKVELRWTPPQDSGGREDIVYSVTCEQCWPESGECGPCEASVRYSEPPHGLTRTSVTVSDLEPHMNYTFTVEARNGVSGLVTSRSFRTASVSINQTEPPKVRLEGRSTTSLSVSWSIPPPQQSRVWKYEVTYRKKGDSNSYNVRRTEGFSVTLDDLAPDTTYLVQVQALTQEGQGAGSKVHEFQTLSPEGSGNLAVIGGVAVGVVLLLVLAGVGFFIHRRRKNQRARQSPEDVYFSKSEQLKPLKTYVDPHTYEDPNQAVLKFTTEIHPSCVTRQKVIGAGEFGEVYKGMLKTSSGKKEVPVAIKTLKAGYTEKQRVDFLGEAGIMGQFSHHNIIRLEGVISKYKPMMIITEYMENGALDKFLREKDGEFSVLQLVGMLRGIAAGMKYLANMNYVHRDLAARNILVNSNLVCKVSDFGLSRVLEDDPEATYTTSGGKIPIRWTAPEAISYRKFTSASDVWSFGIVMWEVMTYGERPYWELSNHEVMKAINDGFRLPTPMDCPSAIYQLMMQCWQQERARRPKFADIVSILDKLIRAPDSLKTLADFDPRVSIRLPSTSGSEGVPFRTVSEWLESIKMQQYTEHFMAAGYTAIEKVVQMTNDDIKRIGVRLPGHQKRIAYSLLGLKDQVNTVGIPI

Vascular endothelial growth factor receptor 1, sequence (P17948 whole entry): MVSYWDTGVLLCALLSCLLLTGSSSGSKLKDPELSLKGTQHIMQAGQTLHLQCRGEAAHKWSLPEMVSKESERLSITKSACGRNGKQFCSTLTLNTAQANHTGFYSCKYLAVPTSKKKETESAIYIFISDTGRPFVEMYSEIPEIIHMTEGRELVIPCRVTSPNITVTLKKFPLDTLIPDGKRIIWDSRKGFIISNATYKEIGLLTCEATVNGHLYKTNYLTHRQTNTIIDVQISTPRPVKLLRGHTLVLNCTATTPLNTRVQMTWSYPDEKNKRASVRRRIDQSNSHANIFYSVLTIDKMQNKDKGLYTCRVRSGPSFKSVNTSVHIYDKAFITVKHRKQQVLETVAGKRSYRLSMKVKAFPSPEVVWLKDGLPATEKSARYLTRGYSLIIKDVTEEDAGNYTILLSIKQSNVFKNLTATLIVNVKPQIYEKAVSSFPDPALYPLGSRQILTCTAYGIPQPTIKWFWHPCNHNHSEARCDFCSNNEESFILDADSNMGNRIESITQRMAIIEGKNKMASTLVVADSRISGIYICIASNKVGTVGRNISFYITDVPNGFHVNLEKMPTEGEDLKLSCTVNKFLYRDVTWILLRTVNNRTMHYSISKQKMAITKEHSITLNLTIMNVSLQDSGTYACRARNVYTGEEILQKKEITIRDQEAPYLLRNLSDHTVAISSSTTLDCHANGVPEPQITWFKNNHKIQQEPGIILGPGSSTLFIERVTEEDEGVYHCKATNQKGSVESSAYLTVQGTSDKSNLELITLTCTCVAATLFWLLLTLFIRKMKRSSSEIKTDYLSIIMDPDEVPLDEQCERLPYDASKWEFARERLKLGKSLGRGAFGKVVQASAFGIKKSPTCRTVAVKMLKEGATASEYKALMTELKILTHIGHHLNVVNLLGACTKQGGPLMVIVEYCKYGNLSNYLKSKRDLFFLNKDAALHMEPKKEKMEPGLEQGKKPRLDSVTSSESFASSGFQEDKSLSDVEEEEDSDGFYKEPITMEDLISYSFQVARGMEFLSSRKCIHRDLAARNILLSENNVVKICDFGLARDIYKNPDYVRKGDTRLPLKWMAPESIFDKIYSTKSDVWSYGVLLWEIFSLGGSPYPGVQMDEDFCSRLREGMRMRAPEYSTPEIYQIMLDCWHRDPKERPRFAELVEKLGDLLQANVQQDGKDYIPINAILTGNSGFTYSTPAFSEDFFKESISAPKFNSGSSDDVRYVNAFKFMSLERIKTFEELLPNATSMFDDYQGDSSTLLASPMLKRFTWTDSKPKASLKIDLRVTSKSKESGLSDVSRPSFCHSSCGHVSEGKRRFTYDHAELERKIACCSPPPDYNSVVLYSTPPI
Receptor tyrosine-protein kinase erbB-2, sequence (P04626 whole entry): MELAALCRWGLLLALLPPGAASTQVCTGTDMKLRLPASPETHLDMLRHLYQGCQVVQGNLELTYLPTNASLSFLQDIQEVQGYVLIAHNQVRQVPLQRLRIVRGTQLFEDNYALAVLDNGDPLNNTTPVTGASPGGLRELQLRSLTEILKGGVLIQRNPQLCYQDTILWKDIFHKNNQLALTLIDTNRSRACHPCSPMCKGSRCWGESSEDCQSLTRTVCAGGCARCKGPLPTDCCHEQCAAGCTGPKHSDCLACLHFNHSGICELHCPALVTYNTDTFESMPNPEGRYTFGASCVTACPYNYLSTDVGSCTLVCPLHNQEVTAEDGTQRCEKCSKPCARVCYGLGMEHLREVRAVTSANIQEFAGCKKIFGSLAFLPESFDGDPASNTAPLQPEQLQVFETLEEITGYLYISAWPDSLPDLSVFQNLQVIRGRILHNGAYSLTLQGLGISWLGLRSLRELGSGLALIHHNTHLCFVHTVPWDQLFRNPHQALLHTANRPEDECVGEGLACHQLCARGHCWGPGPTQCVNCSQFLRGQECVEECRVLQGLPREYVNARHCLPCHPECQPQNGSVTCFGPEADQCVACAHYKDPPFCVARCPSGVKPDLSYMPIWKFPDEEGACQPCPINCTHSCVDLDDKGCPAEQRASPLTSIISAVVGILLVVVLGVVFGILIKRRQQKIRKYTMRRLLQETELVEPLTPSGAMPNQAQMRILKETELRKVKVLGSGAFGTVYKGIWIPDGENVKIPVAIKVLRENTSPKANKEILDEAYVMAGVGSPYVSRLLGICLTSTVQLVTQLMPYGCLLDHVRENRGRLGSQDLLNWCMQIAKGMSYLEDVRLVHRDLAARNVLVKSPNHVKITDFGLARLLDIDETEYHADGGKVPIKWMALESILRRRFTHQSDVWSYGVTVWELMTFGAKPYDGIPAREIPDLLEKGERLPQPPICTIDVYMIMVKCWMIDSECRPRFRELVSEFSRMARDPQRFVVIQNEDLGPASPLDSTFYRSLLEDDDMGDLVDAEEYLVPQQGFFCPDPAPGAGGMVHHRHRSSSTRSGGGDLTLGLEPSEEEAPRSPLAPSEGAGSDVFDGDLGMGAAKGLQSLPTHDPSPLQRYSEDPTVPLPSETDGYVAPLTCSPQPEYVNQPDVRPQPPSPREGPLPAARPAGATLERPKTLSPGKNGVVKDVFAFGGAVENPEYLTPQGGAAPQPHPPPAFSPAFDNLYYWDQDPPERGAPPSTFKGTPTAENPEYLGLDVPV
Vascular endothelial growth factor receptor 2, sequence (P35968 whole entry): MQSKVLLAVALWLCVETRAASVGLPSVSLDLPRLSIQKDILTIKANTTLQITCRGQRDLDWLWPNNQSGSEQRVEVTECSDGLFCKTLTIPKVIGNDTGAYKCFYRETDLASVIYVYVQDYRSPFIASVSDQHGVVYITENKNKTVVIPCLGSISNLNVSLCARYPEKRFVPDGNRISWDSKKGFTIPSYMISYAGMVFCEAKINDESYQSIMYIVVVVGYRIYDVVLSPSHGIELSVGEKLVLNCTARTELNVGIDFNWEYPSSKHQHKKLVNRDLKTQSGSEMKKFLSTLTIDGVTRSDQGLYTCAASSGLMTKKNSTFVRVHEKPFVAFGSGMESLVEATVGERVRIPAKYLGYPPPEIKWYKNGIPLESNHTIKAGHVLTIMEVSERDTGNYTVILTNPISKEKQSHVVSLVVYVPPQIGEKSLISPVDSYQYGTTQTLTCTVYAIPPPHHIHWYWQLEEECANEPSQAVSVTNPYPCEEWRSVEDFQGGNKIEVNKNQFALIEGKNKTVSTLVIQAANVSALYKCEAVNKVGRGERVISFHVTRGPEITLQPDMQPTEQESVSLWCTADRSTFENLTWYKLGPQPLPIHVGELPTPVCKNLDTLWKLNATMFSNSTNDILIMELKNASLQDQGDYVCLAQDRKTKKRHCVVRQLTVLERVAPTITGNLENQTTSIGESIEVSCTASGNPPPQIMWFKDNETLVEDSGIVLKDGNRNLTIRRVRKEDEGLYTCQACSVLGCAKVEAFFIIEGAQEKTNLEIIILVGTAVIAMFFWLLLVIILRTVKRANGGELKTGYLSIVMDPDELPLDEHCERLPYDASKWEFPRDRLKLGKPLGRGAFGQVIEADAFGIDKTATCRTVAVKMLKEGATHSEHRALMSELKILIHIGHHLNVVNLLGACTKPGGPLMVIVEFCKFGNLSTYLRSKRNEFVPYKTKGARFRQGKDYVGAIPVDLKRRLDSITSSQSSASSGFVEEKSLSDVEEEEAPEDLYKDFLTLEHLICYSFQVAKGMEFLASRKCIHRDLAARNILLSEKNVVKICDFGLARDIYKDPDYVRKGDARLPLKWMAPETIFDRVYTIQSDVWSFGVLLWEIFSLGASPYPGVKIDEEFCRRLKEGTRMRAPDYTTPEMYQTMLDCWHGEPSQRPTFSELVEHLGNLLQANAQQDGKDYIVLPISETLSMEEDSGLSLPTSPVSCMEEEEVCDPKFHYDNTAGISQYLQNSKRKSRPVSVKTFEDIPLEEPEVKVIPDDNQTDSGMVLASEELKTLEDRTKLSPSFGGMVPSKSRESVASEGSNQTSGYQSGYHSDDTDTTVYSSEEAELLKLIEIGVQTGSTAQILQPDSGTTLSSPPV

Row | IC50 [1] | IC50 [2] | IC50 [3] | IC50 (Ephrin type-B receptor 4) | IC50 (Ephrin type-A receptor 2) | SMILES
1 | < 50 nM | in the range around 525 nM | – | – | – | COc1cc2c(Nc3ccc(Cl)c(Cl)c3F)ncnc2cc1OC[C@@H]1C[C@@H]2CN(C(C)C)C[C@@H]2C1 [US9796704, Entry 1]
2 | in the range around 525 nM | – | in the range around 525 nM | < 50 nM | in the range around 525 nM | COc1cc2c(Nc3ccc(Br)c(Cl)c3F)ncnc2cc1OC[C@@H]1C[C@@H]2CN(S(C)(=O)=O)C[C@@H]2C1 [US9796704, Entry 6]
3 | in the range around 525 nM | – | in the range around 525 nM | in the range around 525 nM | in the range around 525 nM | COc1cc2c(Nc3ccc(Cl)c(Cl)c3F)ncnc2cc1OC[C@H]1C[C@@H]2CN(C)C[C@@H]2C1 [US9796704, Entry 9]
4 | < 50 nM | – | – | in the range around 525 nM | – | COc1cc2c(Nc3ccc(Br)c(Cl)c3F)ncnc2cc1OC[C@@H]1CN2CCC[C@H]2CO1 [US9796704, Entry 37]
5 | – | in the range around 10500 nM | in the range around 10500 nM | – | in the range around 10500 nM | COc1cc2c(Nc3ccc(Cl)c(Cl)c3F)ncnc2cc1OC[C@@H]1CN2CCC[C@H]2C(=O)N1 [US9796704, Entry 51]
6 | – | in the range around 10500 nM | in the range around 10500 nM | – | in the range around 10500 nM | COc1cc2c(Nc3ccc(Cl)c(Cl)c3F)ncnc2cc1OC[C@@H]1CN2CCC[C@@H]2C(=O)N1 [US9796704, Entry 52]
7 | – | in the range around 10500 nM | in the range around 10500 nM | – | in the range around 10500 nM | COc1cc2c(Nc3ccc(Cl)c(Cl)c3)ncnc2cc1OCC1CN2CSC[C@H]2CO1 (stereo not given in full) [US9796704, Entry 56]
8 | in the range around 525 nM | – | in the range around 525 nM | in the range around 525 nM | in the range around 525 nM | COc1cc2c(Nc3ccc(F)c(F)c3)ncnc2cc1O[C@@H]1CO[C@@H]2[C@H]1OC[C@H]2F [US9796704, Entry 111]
9 | – | – | in the range around 525 nM | in the range around 525 nM | in the range around 525 nM | COc1cc2c(Nc3cc(C)cc(C)c3)ncnc2cc1O[C@@H]1CO[C@@H]2[C@H]1OC[C@H]2F [US9796704, Entry 133]
10 | – | – | in the range around 525 nM | in the range around 525 nM | in the range around 525 nM | COc1cc(Nc2ncnc3cc(O[C@@H]4CO[C@@H]5[C@H]4OC[C@H]5F)c(OC)cc23)c(OC)cc1Cl [US9796704, Entry 136]
11 | – | – | in the range around 525 nM | in the range around 525 nM | in the range around 525 nM | COc1cc2c(Nc3ccc(Cl)c(Cl)c3)ncnc2cc1OCc1cccc2nsnc12 [US9796704, Entry 159]
12 | – | – | in the range around 525 nM | in the range around 525 nM | in the range around 525 nM | COc1cc2c(Nc3ccc(Cl)c(Cl)c3)ncnc2cc1OCc1nc2ccccc2s1 [US9796704, Entry 162]
13 | – | – | in the range around 10500 nM | in the range around 525 nM | in the range around 525 nM | COc1cc2c(Nc3ccc(Cl)c(Cl)c3)ncnc2cc1OCc1cnn(-c2ccccc2)c1 [US9796704, Entry 165]
14 | – | – | in the range around 525 nM | in the range around 525 nM | in the range around 525 nM | COc1cc2c(Nc3ccc(Cl)c(Cl)c3)ncnc2cc1OCc1nc(-c2ccc(Cl)cc2)no1 [US9796704, Entry 168]
15 | – | – | in the range around 525 nM | in the range around 525 nM | in the range around 10500 nM | COc1cc2c(Nc3ccc(Cl)c(Cl)c3)ncnc2cc1OCc1c(OC)ccc2cc(Br)ccc12 [US9796704, Entry 169]
16 | – | – | in the range around 525 nM | in the range around 525 nM | in the range around 10500 nM | COc1cc2c(Nc3ccc(Cl)c(Cl)c3)ncnc2cc1OCc1ccc(Cl)nc1 [US9796704, Entry 171]
17 | – | – | in the range around 525 nM | in the range around 525 nM | in the range around 525 nM | COc1cc2c(Nc3ccc(Cl)c(Cl)c3)ncnc2cc1OCc1csc(C)n1 [US9796704, Entry 173]
18 | – | – | in the range around 525 nM | in the range around 10500 nM | in the range around 10500 nM | COc1cc2c(Nc3ccc(Cl)c(Cl)c3)ncnc2cc1OCc1cc(Cl)cc2c1OCOC2 [US9796704, Entry 174]
19 | – | – | in the range around 525 nM | in the range around 525 nM | in the range around 525 nM | COc1cc2c(Nc3ccc(Cl)c(Cl)c3)ncnc2cc1OCC1=CC2C(C(F)(F)F)=NN(C)C2S1 (stereo not given) [US9796704, Entry 176]
20 | – | – | in the range around 525 nM | in the range around 525 nM | in the range around 525 nM | COc1cc2c(Nc3ccc(Cl)c(Cl)c3)ncnc2cc1OCc1cc(-c2ccccc2)no1 [US9796704, Entry 177]
21 | – | – | in the range around 10500 nM | in the range around 10500 nM | in the range around 10500 nM | COc1cc2c(Nc3ccc(Cl)c(Cl)c3)ncnc2cc1OCc1c(C)cc(C)cc1C [US9796704, Entry 178]
22 | – | – | in the range around 525 nM | in the range around 525 nM | in the range around 525 nM | COc1ccc(-c2cc(COc3cc4ncnc(Nc5ccc(Cl)c(Cl)c5)c4cc3OC)on2)cc1 [US9796704, Entry 180]
23 | – | – | in the range around 525 nM | in the range around 525 nM | in the range around 525 nM | COc1cc2c(Nc3ccc(Cl)c(Cl)c3)ncnc2cc1OCc1c(C(F)(F)F)nn(C)c1Oc1ccc(Cl)cc1Cl [US9796704, Entry 181]
24 | – | – | in the range around 525 nM | < 50 nM | in the range around 525 nM | COc1cc2c(Nc3ccc(Cl)c(Cl)c3)ncnc2cc1OC[C@@H]1O[C@@H](OC)[C@@H](O)[C@H](O)[C@H]1O [US9796704, Entry 194]
25 | – | – | in the range around 525 nM | in the range around 525 nM | in the range around 525 nM | COc1cc2c(Nc3ccc(Cl)c(Cl)c3)ncnc2cc1OCc1noc(COCc2ccccc2)n1 [US9796704, Entry 211]
26 | in the range around 10500 nM | – | in the range around 10500 nM | in the range around 525 nM | in the range around 10500 nM | CCN1CCCC1c1noc(COc2cc3ncnc(Nc4ccc(Cl)c(Cl)c4)c3cc2OC)n1 (stereo not given) [US9796704, Entry 255]
27 | in the range around 10500 nM | – | in the range around 10500 nM | in the range around 525 nM | in the range around 10500 nM | CCN1CCCC1c1nc(COc2cc3ncnc(Nc4ccc(Cl)c(Cl)c4)c3cc2OC)cs1 (stereo not given) [US9796704, Entry 256]
28 | in the range around 10500 nM | – | in the range around 10500 nM | in the range around 10500 nM | in the range around 10500 nM | C=CCCCCN1CCOC(COc2cc3ncnc(Nc4ccc(Cl)c(Cl)c4)c3cc2OC)C1 (stereo not given) [US9796704, Entry 274]
29 | in the range around 10500 nM | – | in the range around 10500 nM | in the range around 10500 nM | in the range around 10500 nM | COC(=O)CCN1CCOC(COc2cc3ncnc(Nc4ccc(Cl)c(Cl)c4)c3cc2OC)C1 (stereo not given) [US9796704, Entry 276]

Row | SMILES | IC50 [1] | IC50 [2] | IC50 [3] | IC50 (Ephrin type-B receptor 4) | IC50 (Ephrin type-A receptor 2)
30 | COc1cc2c(Nc3ccc(Cl)c(Cl)c3)ncnc2cc1OC[C@@H]1CN2CCC[C@H]2CO1 [US9796704, Entry 34] | < 50 nM | – | in the range around 525 nM | in the range around 525 nM | in the range around 525 nM
31 | COc1cc2c(Nc3ccc(Cl)c(Cl)c3)ncnc2cc1OC[C@H]1CN2CCC[C@H]2CO1 [US9796704, Entry 35] | in the range around 525 nM | – | – | in the range around 525 nM | in the range around 525 nM
32 | COc1cc2c(Nc3ccc(Cl)c(Cl)c3)ncnc2cc1OCC1CC2CCC(C1)N2C (stereo not given) [US9796704, Entry 58] | – | in the range around 10500 nM | – | – | –
